Reference: ChEMBL document CHEMBL1134913, “Novel substituted 4-aminomethylpiperidines as potent and selective human beta3-agonists. Part 1: aryloxypropanolaminomethylpiperidines” (Bioorg Med Chem Lett, 2002)

Columns and labels:
[1] = target: T1, Beta-1 adrenergic receptor (Homo sapiens, UniProt P08588); assay: In vitro agonist activity measured by increase in cAMP levels in chinese hamster ovary cells (CHO) cells expressing human Beta-1 adrenergic receptor; type: functional, cell-based
Target sequence in this assay (P08588 whole entry): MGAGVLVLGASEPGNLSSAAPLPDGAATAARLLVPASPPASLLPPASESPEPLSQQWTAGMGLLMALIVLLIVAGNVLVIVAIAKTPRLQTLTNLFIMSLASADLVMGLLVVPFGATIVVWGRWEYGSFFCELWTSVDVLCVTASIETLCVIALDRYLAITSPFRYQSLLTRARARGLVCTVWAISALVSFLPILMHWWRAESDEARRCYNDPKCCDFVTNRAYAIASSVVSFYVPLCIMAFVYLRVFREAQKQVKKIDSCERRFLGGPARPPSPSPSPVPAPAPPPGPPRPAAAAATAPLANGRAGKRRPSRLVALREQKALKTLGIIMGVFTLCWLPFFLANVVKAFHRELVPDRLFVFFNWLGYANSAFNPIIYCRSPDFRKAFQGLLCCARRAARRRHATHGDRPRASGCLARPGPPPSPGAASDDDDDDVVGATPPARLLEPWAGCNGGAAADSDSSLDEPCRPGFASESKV

[2] = target: T2, Beta-2 adrenergic receptor (Homo sapiens, UniProt P07550); assay: In vitro agonist activity measured by increase in cAMP levels in chinese hamster ovary cells (CHO) cells expressing human Beta-2 adrenergic receptor; type: functional, cell-based
[3] = target: T3, Beta-3 adrenergic receptor (Homo sapiens, UniProt P13945); assay: In vitro agonist activity by increase in cAMP levels in chinese hamster ovary cells (CHO) cells stimulated by human Beta-3 adrenergic receptor was determined; IA is inactive; type: functional, cell-based
Target sequence in this assay (P13945 whole entry): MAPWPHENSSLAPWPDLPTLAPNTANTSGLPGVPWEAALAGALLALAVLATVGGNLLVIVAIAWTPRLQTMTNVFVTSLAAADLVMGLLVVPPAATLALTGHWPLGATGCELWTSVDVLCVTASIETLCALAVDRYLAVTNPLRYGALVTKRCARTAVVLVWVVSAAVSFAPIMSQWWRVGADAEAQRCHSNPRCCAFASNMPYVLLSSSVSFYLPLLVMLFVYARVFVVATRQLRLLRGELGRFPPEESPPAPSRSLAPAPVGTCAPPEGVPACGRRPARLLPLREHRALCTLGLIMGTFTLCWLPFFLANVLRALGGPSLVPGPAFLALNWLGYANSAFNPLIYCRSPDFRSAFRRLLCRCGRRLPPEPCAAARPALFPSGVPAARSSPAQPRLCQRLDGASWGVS

[4] = target: T3, Beta-3 adrenergic receptor; assay: Intrinsic activity (IA) for Beta-3 adrenergic receptor agonism was determined as the maximal response with respect to the maximal response of isoproterenol at […].
Target sequence in this assay (P13945 whole entry, looked up): as the sequence (P13945 whole entry) above

[5] = target: T2, Beta-2 adrenergic receptor; assay: (§1) Compound was tested for the antagonistic activity against Beta-2 adrenergic receptor
[6] = target: T1, Beta-1 adrenergic receptor; assay: Compound was tested for the antagonistic activity against Beta-1 adrenergic receptor; type: functional
Target sequence in this assay (P08588 whole entry): as the sequence (P08588 whole entry) above

Mus musculus = assay: In vivo activity of compound with an increase in thermogenesis in the Beta 3 transgenic mice at an ip dose of 10 mg/kg was determined; type: functional; details: route intraperitoneal
[7] = target: T1, Beta-1 adrenergic receptor; assay: Intrinsic activity (IA) for Beta-1 adrenoceptor agonism was determined as the maximal response with respect to the maximal response of isoproterenol at […].; type: functional
Target sequence in this assay (P08588 whole entry, looked up): as the sequence (P08588 whole entry) above

[8] = target: T2, Beta-2 adrenergic receptor; assay: In vitro agonist activity by increase in cAMP levels in chinese hamster ovary cells (CHO) cells stimulated by human Beta-2 Adrenoceptor; type: functional, cell-based
[9] = target: T3, Beta-3 adrenergic receptor; assay: Intrinsic activity (IA) for Beta-3 adrenoceptor agonism was determined as the maximal response with respect to the maximal response of isoproterenol at […].; type: functional
Target sequence in this assay (P13945 whole entry, looked up): as the sequence (P13945 whole entry) above

[10] = target: T1, Beta-1 adrenergic receptor; assay: In vitro agonist activity by increase in cAMP levels in chinese hamster ovary cells (CHO) cells stimulated by human Beta-1 Adrenoceptor was determined; type: functional, cell-based
Target sequence in this assay (P08588 whole entry): as the sequence (P08588 whole entry) above

[11] = target: T3, Beta-3 adrenergic receptor; assay: In vitro agonist activity by increase in cAMP levels in chinese hamster ovary cells (CHO) cells stimulated by human Beta-3 Adrenoceptor was determined; type: functional, cell-based
Target sequence in this assay (P13945 whole entry): as the sequence (P13945 whole entry) above

[12] = target: T2, Beta-2 adrenergic receptor; assay: as §1; type: functional

T2 sequence (P07550 whole entry): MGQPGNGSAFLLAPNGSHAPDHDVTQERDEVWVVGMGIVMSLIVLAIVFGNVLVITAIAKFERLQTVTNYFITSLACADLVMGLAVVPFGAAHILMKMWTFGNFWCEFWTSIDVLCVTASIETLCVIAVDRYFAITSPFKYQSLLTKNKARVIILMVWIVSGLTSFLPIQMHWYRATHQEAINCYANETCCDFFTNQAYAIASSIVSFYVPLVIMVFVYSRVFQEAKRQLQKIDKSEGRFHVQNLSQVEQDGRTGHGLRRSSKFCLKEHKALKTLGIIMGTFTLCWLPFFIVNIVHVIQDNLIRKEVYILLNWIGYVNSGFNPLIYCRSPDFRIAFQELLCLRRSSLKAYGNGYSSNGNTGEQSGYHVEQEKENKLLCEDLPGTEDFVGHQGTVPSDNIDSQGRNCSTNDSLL

| Structure (SMILES) | EC50 [1] [µM] | EC50 [2] [µM] | further results |
| --- | --- | --- | --- |
| O=C(Nc1ccccc1)Nc1ccc(S(=O)(=O)N2CCC(CNC[C@H](O)COc3ccc(O)cc3)CC2)cc1 | 0.489 | – | – |
| CCCCCCNC(=O)Nc1ccc(S(=O)(=O)N2CCC(CNC[C@H](O)COc3cccc4[nH]c5ccccc5c34)CC2)cc1 | > 1 | > 1 | – |
| O[C@@H](CNCC1CCN(c2ncccc2C(F)(F)F)CC1)COc1cccc2[nH]c3ccccc3c12 | – | – | EC50 [3]: Not Active; EC50 [4]: Not Active |
| CCCCCCCCNC(=O)Nc1ccc(S(=O)(=O)N2CCC(CNC[C@H](O)COc3ccc(O)cc3)CC2)cc1 | 0.887 | – | IC50 [5]: 0.004 µM; IC50 [6]: 0.027 µM; Thermogenesis (Mus musculus): 30 |
| CCCCCCCCNC(=O)Nc1ccc(S(=O)(=O)N2CCC(CNC[C@H](O)COc3ccc(O)c4c3CCC(=O)N4)CC2)cc1 | 0.39 | 0.68 | Intrinsic activity [7]: 0.63 |
| O=C(O)c1cccc(NC(=O)N2CCC(CNC[C@H](O)COc3cccc4[nH]c5ccccc5c34)CC2)c1 | – | – | EC50 [8]: > 1 µM; Intrinsic activity [9]: 0.29; Intrinsic activity [7]: 0.05; EC50 [10]: > 1 µM; EC50 [11]: 0.07 µM |
| O=C(Nc1ccc(S(=O)(=O)N2CCC(CNC[C@H](O)COc3ccc(O)cc3)CC2)cc1)NC1CCCCC1 | 1.02 | – | – |
| O[C@@H](CNCC1CCN(CCC(F)(F)F)CC1)COc1cccc2[nH]c3ccccc3c12 | 0.417 | > 1 | – |
| CCCCCCN1CCC(CNC[C@H](O)COc2cccc3[nH]c4ccccc4c23)CC1 | > 1 | > 1 | – |

Further lines, with some results ahead:

| EC50 [1] [µM] | EC50 [2] [µM] | Structure (SMILES) | further results |
| --- | --- | --- | --- |
| 1.01 | – | O=C(NCc1cc(F)ccc1F)Nc1ccc(S(=O)(=O)N2CCC(CNC[C@H](O)COc3ccc(O)cc3)CC2)cc1 | – |
| 2.05 | – | O=C(NCCCc1cccs1)Nc1ccc(S(=O)(=O)N2CCC(CNC[C@H](O)COc3ccc(O)cc3)CC2)cc1 | – |
| 0.525 | – | O=C(NCc1cc(F)ccc1F)Nc1ccc(S(=O)(=O)N2CCC(CNC[C@H](O)COc3ccc(O)c(F)c3)CC2)cc1 | – |
| 10.9 | – | CCCCCCNC(=O)Nc1ccc(S(=O)(=O)N2CCC(CNC[C@H](O)COc3ccc(O)cc3)CC2)cc1 | – |
| 0.353 | 0.454 | CS(=O)(=O)Nc1cc(OC[C@@H](O)CNCC2CCN(S(=O)(=O)c3ccc(NC(=O)NCc4cc(F)ccc4F)cc3)CC2)ccc1O | Intrinsic activity [7]: 0.49; IC50 [12]: 0.268 µM; IC50 [6]: 6.16 µM; Thermogenesis (Mus musculus): 18 |
